Experimental data reported in article PMC5281649 (European Journal of Nuclear Medicine and Molecular Imaging, 2016).
Read-outs that look alike come from different tables or passages of the source.

Experiments:
[1] = parameters: method as in PMID 22451094; details: elderly subjects; steady-state conditions; plasma; cited from earlier work
brain MAO-B enzyme [2] = molecular target: T1, brain MAO-B enzyme (Homo sapiens, UniProt P27338); test: Plasma concentration–MAO-B enzyme inhibition relationship (simple Emax model); type: in vivo
T1 sequence (P27338 1-520): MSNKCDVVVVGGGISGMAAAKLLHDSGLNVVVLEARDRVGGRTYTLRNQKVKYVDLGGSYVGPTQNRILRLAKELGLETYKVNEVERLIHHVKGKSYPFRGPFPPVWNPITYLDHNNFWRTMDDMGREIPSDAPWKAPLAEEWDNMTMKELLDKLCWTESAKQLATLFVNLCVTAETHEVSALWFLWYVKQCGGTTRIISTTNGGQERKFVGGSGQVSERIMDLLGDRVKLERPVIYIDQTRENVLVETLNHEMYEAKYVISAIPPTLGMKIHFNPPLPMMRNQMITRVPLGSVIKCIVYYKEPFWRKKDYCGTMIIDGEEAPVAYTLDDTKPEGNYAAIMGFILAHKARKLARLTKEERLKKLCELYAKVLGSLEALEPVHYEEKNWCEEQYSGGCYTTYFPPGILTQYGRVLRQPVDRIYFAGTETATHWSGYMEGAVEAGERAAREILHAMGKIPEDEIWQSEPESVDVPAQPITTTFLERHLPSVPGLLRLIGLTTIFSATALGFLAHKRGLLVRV
Description: The PK/PD analysis was performed using Phoenix WinNonlin software version 6.2 (Pharsight Corporation, Mountain View, CA, USA).

MAO-B enzyme = molecular target: MAO-B enzyme; parameters: method as in doi:10.1016/j.jalz.2013.05.1757; details: MAO enzymatic activity and displacement assays; read-out: IC50 from in vitro affinity assays of the MAO-B enzyme; cited from earlier work
[3] = Pre-PET sembragiline plasma concentration at steady state (LC-MS/MS); type: in vivo, human
brain MAO-B enzyme [4] = molecular target: T1, brain MAO-B enzyme; details: ref Roche data on file, cited from earlier work; for Brain MAO-B inhibition: young healthy subjects
MAO-A = test system: MAO-A; parameters: method as in doi:10.1016/j.jalz.2013.05.1757; details: MAO-B over MAO-A; cited from earlier work
[5] = parameters: method as in PMID 22451094; details: phase 1 and 2 studies, approximately 1040 subjects; cited from earlier work

CC(=O)N[C@H]1CC(=O)N(c2ccc(OCc3cccc(F)c3)cc2)C1 [sembragiline]
Terminal half-life [1]: 50 to 65 h | Emax (maximum MAO-B occupancy) (brain MAO-B enzyme [2]; AD patients, frontal cortex, steady state, pre-scan plasma concentration): 81.1 (CV%: 3.2) | EC50 (brain MAO-B enzyme [2]; AD patients, frontal cortex, steady state, pre-scan plasma concentration, read-out: EC50 (plasma concentration at half-maximal occupancy) (converted)): 3.1 nM | Emax (maximum MAO-B occupancy) (brain MAO-B enzyme [2]; AD patients, hippocampus, steady state, pre-scan plasma concentration): 85.9 (CV%: 4.1) | EC50 (brain MAO-B enzyme [2]; AD patients, hippocampus, steady state, pre-scan plasma concentration, read-out: EC50 (plasma concentration at half-maximal occupancy) (converted)): 3.77 nM | Emax (maximum MAO-B occupancy) (brain MAO-B enzyme [2]; AD patients, striatum, steady state, pre-scan plasma concentration): 87.8 (CV%: 1.8) | EC50 (brain MAO-B enzyme [2]; AD patients, striatum, steady state, pre-scan plasma concentration, read-out: EC50 (plasma concentration at half-maximal occupancy) (converted)): 3.24 nM | Emax (maximum MAO-B occupancy) (brain MAO-B enzyme [2]; EC subjects, frontal cortex, steady state, pre-scan plasma concentration): 80.1 (CV%: 8.9) | EC50 (brain MAO-B enzyme [2]; EC subjects, frontal cortex, steady state, pre-scan plasma concentration, read-out: EC50 (plasma concentration at half-maximal occupancy) (converted)): 4.59 nM | Emax (maximum MAO-B occupancy) (brain MAO-B enzyme [2]; EC subjects, hippocampus, steady state, pre-scan plasma concentration): 89.1 (CV%: 9.6) | EC50 (brain MAO-B enzyme [2]; EC subjects, hippocampus, steady state, pre-scan plasma concentration, read-out: EC50 (plasma concentration at half-maximal occupancy) (converted)): 5.99 nM | Emax (maximum MAO-B occupancy) (brain MAO-B enzyme [2]; EC subjects, striatum, steady state, pre-scan plasma concentration): 88.8 (CV%: 7.5) | EC50 (brain MAO-B enzyme [2]; EC subjects, striatum, steady state, pre-scan plasma concentration, read-out: EC50 (plasma concentration at half-maximal occupancy) (converted)): 4.88 nM | Estimated Emax of MAO-B inhibition (brain MAO-B enzyme [2]; across ROIs and for both populations, steady state): 80–89% | EC50 (brain MAO-B enzyme [2]; across ROIs and for both populations, steady state, read-out: Estimated EC50 (plasma concentration)): 2.92 to 5.84 nM | Emax (brain MAO-B enzyme [2]; across ROIs and for both populations, steady state, read-out: Estimated Emax of MAO-B inhibition): 80 to 90% | Sembragiline concentration needed for near-complete MAO-B inhibition in the brain (brain MAO-B enzyme [2]; regardless of the population): around 20 ng/mL | Plasma concentration at which the plateau in MAO-B inhibition occurred (brain MAO-B enzyme [2]; steady state, AD patients and EC subjects): 20 to 50 ng/mL | IC50 (MAO-B enzyme): 5 to 6 nM | Pre-PET sembragiline plasma concentration at steady state, mean ([3]; AD patients, 1 mg q.d. for 14 days, N 3): 41.9 ng/mL | Pre-PET sembragiline plasma concentration at steady state, mean ([3]; AD patients, 5 mg loading day 1 then 0.1 mg q.d. Day 2–15, N 2): 2.55 ng/mL | Pre-PET sembragiline plasma concentration at steady state, mean ([3]; AD patients, 5 mg loading day 1 then 0.2 mg q.d. Day 2–7, N 3): 7.06 ng/mL | Pre-PET sembragiline plasma concentration at steady state, mean ([3]; AD patients, 5 mg q.d. for 6–9 days, N 2): 96.7 ng/mL | Pre-PET sembragiline plasma concentration at steady state, mean ([3]; EC subjects, 1 mg q.d. for 14 days, N 3): 33.9 ng/mL | Pre-PET sembragiline plasma concentration at steady state, mean ([3]; EC subjects, 5 mg loading day 1 then 0.2 mg q.d. Day 2–7, N 3): 3.29 ng/mL | Brain penetration (brain MAO-B enzyme [4]; healthy young men, PET imaging): crosses the blood–brain barrier | Brain MAO-B inhibition (brain MAO-B enzyme [4]; 5 mg daily for 2–10 days, cortical regions): 52–78% | Brain MAO-B inhibition (brain MAO-B enzyme [4]; 5 mg daily for 2–10 days, subcortical regions): 73–87% | Brain MAO-B inhibition (brain MAO-B enzyme [4]; 15 mg, cortical regions): 68–74% | Brain MAO-B inhibition (brain MAO-B enzyme [4]; 15 mg, subcortical regions): 83–86% | Potency in inhibiting MAO-B relative to MAO-A (MAO-A): approximately 600 fold | Safety and tolerability [5]: safe and well tolerated
